These results are taken from patent US11427548B2 (Arvinas Operations, Inc., priority 2015, dated 2022).

Series [1] concerns the target T1, Androgen Receptor (Homo sapiens, UniProt P10275).
T1 construct: endogenous in cells; host or cells: VCaP cells
T1 sequence (P10275 1-920): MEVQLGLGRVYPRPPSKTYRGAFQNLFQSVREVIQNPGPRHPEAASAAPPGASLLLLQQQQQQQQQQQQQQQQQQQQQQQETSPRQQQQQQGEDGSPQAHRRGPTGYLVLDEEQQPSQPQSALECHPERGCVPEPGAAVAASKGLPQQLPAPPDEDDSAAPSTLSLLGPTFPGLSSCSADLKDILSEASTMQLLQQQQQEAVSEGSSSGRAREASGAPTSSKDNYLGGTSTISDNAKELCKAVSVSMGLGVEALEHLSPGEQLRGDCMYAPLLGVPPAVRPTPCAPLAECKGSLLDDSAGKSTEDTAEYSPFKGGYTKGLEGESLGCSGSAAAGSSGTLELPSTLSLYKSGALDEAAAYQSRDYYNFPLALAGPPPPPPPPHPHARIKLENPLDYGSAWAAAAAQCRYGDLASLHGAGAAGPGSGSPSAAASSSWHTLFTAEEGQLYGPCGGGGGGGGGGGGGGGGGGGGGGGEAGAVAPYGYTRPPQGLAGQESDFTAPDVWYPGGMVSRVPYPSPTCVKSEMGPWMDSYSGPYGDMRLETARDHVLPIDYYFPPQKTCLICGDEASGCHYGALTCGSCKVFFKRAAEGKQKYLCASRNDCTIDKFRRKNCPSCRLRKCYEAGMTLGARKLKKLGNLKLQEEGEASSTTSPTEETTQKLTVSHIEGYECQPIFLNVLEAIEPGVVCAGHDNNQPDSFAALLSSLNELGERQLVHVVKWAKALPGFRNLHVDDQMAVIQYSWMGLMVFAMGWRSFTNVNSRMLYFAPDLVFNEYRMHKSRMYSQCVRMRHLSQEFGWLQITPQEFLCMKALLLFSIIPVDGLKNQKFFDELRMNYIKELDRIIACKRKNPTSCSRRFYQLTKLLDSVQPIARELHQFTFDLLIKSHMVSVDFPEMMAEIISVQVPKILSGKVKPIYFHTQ
The experiment in a line: Androgen Receptor ELISA assay (PathScan AR ELISA) in VCaP cells: AR degradation, Dmax and DC50. It counts as cell-based. The following applies: for Dmax: VCaP, read-out: VCaP Dmax (%); for DC50: read-out: VCaP DC50. In a few lines: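 VCaP cells, 30,000/well, grown ≥3 days in phenol red-free RPMI with 5% charcoal-stripped FBS; compound added in 0.1% DMSO with 0.1 nM R1881, 7 half-log doses, 24 h. Lysate AR quantified by PathScan sandwich ELISA, HRP/TMB read at 450 nm, giving DC50 and Dmax.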
(In general: In an ELISA, binding on a coated surface is turned into a signal by an enzyme label.)

Series [2] deals with T2, Androgen Receptor (Homo sapiens, UniProt P10275+P40337, T878A).
T2 construct: Compounds have been evaluated in this assay in LNCaP and/or VCaP cells utilizing similar protocols; endogenous in cells; host or cells: LNCaP cells
The experiment in a line: Androgen Receptor ELISA assay (PathScan AR ELISA) in LNCaP cells: AR degradation, Dmax and DC50. It counts as cell-based. To be noted: for DC50: concentration that caused 50% Androgen Receptor degradation; for Dmax: highest percentage of Androgen Receptor degradation observed.

In the next series the test system is VCaP cells. The series can be described thus: VCaP cell proliferation assay (Cell Titer Glo), GI50. The class given is cell-based. The following applies: Homo sapiens; VCaP cells, 0.1 nM R1881; Table 37; read-out: GI50, Inhibition of VCaP Proliferation. The procedure:
2. VCaP Cell Proliferation Assay.
VCaP cells are plated 7,500/well 200 μL/well in VCaP assay medium [Phenol red free RPMI (Gibco Cat #11835-030); 5% Charcoal Stripped (Dextran treated) FBS (Omega Scientific, Cat #FB-04); Pen/Strep Life Technologies (Gibco Cat #: 10378-016); 0.1 nM R1881 (Sigma, Cat #R0908) is added upon the start of the assay, not during initial plating of the cells).
The assay was performed as follows: the cells are grown for a minimum of 3 days to deplete androgens; dosing of PROTACs and R1881 is performed as for AR ELISA; the baseline reading of Cell Titer Glo can be performed on day of dosing.
VCaP cells with 0.1 nM R1881 will double once in 4 days. Gently draw off 110 μL of media so as not to disturb the adherent cells; add 110 μL of CTG; incubate with slow shaking for 20 minutes; and read luminescence on a plate reader.
For orientation: In ATP-based viability assays light output follows the ATP content of the culture.

The nature of series [3]: PROTAC subcutaneous pharmacokinetics in CD-1 mice. It counts as in vivo. The following applies: male, plasma, CD-1 Mouse, 10 mg/kg SC dose; for AUC(0-t): read-out: Plasma Exposure AUC0-24; for Cmax: read-out: Plasma Exposure Cmax. The procedure:
(§1) 9. PROTAC Prodrug Oral Pharmacokinetics and PROTAC Subcutaneous Phamacokinetics.
(§2) Representative Pharmacokinetic Procedure
(§3) Male CD-1 mice (6-8 weeks old, weighing 20-30 g, 3 per study) with free access to food and water were administered with the test article at 10 mg/kg either by oral gavage or sub-cutaneous injection in the formulation specified in tables 20 and 21, at 10 mL/kg.
(§4) Approximately 0.04 mL blood samples were collected from the dorsal metatarsal vein serially at 0.25, 0.5, 1, 2, 4, 8 and 24 h timepoints; heparin was used as the anticoagulant. The samples were centrifuged at 4000 g for 5 min at 4° C. then stored at −75° C. prior to analysis.
(§5) The plasma samples were analysed via an LC/MS/MS method quantitating for unchanged, administered test article, and/or a derivative species as appropriate. WinNonlin (Phoenix™) was used for the pharmacokinetic calculations and modeling, to generate parameters such as Cmax and AUC.

A short description of series [4]: PROTAC prodrug oral pharmacokinetics in CD-1 mice. To be noted: male, mouse, plasma, 10 mg/kg, 10 mpk PO; for AUC: read-out: Plasma Exposure Prodrug AUC; for Cmax: read-out: Plasma Exposure Prodrug Cmax. It counts as in vivo. As for the experimental part: as §1, §2, §3, §4, §5
[5] abbreviates: highest percentage of Androgen Receptor degradation observed, VCaP cells (Table 32).
The mark [6] stands for this setting: concentration that caused 50% Androgen Receptor degradation, VCaP cells (Table 32).
Where [7] appears, read: vehicle ESP-4, prodrug measured.
The mark [8] stands for this setting: vehicle ESD-4, prodrug measured.

Like-named read-outs stand apart in the source and are kept apart here. A value given as a limit tells only on which side of the number the result lay.

T2 sequence (P10275 whole entry T878A): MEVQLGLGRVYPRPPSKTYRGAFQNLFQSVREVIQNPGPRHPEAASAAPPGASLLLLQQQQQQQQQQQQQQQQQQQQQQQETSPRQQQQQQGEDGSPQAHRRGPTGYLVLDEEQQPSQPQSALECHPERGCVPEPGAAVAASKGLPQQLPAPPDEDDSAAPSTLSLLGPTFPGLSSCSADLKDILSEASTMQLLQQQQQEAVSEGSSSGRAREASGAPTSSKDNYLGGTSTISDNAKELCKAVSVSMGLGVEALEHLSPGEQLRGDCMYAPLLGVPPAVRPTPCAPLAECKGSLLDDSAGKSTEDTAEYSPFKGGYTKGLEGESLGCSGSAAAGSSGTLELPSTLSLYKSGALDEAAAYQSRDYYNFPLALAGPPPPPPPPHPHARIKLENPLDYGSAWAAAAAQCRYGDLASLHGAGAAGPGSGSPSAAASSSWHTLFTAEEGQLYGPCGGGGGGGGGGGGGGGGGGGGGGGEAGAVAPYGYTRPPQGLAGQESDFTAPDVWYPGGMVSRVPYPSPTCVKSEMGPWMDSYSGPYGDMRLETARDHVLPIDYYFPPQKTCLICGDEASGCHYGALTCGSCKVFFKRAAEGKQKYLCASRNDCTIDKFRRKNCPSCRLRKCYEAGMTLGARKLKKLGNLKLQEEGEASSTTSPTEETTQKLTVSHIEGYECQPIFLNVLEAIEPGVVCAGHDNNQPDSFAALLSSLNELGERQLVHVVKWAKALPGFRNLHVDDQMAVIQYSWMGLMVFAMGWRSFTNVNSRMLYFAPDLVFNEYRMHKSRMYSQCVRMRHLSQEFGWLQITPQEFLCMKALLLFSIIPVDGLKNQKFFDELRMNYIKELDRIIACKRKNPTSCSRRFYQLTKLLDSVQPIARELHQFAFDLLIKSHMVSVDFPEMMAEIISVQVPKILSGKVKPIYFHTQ
T2 sequence (P40337 whole entry): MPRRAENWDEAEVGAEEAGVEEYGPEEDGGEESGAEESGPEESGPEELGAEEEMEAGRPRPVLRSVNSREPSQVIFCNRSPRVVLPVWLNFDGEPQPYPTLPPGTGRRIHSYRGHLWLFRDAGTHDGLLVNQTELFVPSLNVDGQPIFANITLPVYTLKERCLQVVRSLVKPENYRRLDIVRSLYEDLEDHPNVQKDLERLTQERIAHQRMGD
T2 sequence (Q15369 whole entry partner): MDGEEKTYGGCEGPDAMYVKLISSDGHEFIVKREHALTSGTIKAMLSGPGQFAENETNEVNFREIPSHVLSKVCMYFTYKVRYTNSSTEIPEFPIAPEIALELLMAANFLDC
T2 sequence (Q15370 whole entry partner): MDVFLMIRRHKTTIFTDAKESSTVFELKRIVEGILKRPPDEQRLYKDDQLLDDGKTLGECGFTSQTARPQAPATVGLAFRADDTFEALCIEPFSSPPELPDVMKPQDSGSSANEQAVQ

Regarding `Cc1ncsc1-c1ccc(CNC(=O)[C@@H]2C[C@@H](O)CN2C(=O)[C@@H](NC(=O)COCCCCOc2ccc(-c3ccc(N4C(=S)N(c5ccc(C#N)c(C(F)(F)F)c5)C(=O)C4(C)C)cc3)cc2)C(C)(C)C)cc1` [Example 75, (2S,4R)-1-[(2S)-2-(2-{4-[4-(4-{3-[4-cyano-3-(trifluoromethyl)phenyl]-5,5-dimethyl-4-oxo-2-sulfanylideneimidazolidin-1-yl}phenyl)phenoxy]butoxy}acetamido)-3,3-dimethylbutanoyl]-4-hydroxy-N-{[4-(4-methyl-1,3-thiazol-5-yl)phenyl]methyl}pyrrolidine-2-carboxamide], the Dmax at Androgen Receptor [1] and at Androgen Receptor [2] was above 71% each time. Moreover, the DC50 – broadly, the concentration giving 50% degradation – at Androgen Receptor [1] (concentration that caused 50% Androgen Receptor degradation, VCaP cells) is below 50 nM; at Androgen Receptor [2] it was below 50 nM. Moreover, the GI50 in the series with VCaP cells is 51 to 250 nM.

In the case of `Cc1ncsc1-c1ccc(CNC(=O)[C@@H]2C[C@@H](O)CN2C(=O)[C@@H](NC(=O)COCCCOCCN2CCC(c3ccc(N4C(=S)N(c5ccc(C#N)c(C(F)(F)F)c5)C(=O)C4(C)C)cc3)CC2)C(C)(C)C)cc1` [Example 80, (2S,4R)-1-((S)-2-(2-(3-(2-(4-(4-(3-(4-cyano-3-(trifluoromethyl)phenyl)-5,5-dimethyl-4-oxo-2-thioxoimidazolidin-1-yl)phenyl)piperidin-1-yl)ethoxy)propoxy)acetamido)-3,3-dimethylbutanoyl)-4-hydroxy-N-(4-(4-methylthiazol-5-yl)benzyl)pyrrolidine-2-carboxamide], the Dmax (in general, the greatest extent of degradation seen) at Androgen Receptor [1] lay in the range of 26 to 50%. Besides, on Androgen Receptor [2], the DC50 was above 501 nM and the Dmax was in the range of 51 to 70%. Besides, in series [3] (vehicle ELP-1), the AUC(0-t) was found to be 2530 ng·h/mL and the maximum concentration (Cmax) (as a rule, the maximum level reached in the sampled fluid or tissue) turned out to be 180 ng/mL.

For the compound `CC(C)(C)[C@H](NC(=O)COCCCCCOc1ccc(C(=O)N[C@H]2C(C)(C)[C@H](Oc3ccc(C#N)c(Cl)c3)C2(C)C)cc1)C(=O)N1C[C@H](O)C[C@H]1C(=O)NCc1ccc(-c2cncs2)cc1` [Example 150, (2S,4R)-1-[(2S)-3,3-dimethyl-2-(2-{[5-(4-{[trans-3-(3-chloro-4-cyanophenoxy)-2,2,4,4-tetramethylcyclobutyl]carbamoyl}phen-oxy)pentyl]oxy}acetamido)butanoyl]-4-hydroxy-N-{[4-(1,3-thiazol-5-yl)phenyl]methyl}pyrrolidine-2-carboxamide], at Androgen Receptor [1] (setting [5]), the Dmax was above 71%. On Androgen Receptor [1] (setting [6]), the DC50 is below 50 nM. Besides, the GI50 in the series on VCaP cells was at most 50 nM. For the same compound, in series [3] (vehicle ESD-1), the AUC(0-t) stood at 40200 ng·h/mL and the Cmax is 2750 ng/mL.

Regarding `Cc1ncsc1-c1ccc([C@H](C)NC(=O)[C@@H]2C[C@@H](O)CN2C(=O)[C@@H](NC(=O)COCCCCCNc2ccc(C(=O)N[C@H]3C(C)(C)[C@H](Oc4ccc(C#N)c(Cl)c4)C3(C)C)cc2)C(C)(C)C)cc1` [Example 174, (2S,4R)-1-[(2S)-3,3-dimethyl-2-[2-({5-[(4-{[trans-3-(3-chloro-4-cyanophenoxy)-2,2,4,4-tetramethylcyclobutyl]carbamoyl}phenyl)amino]pentyl}oxy)acetamido]butanoyl]-4-hydroxy-N-[(1S)-1-[4-(4-methyl-1,3-thiazol-5-yl)phenyl]ethyl]pyrrolidine-2-carboxamide], at Androgen Receptor [1] (setting [5]), the Dmax is above 71%. Besides, on Androgen Receptor [1] (setting [6]), the DC50 was below 50 nM. The GI50 in the series on VCaP cells was at most 50 nM. Moreover, in series [3] (vehicle ESD-1), the AUC(0-t) was 35100 ng·h/mL and the Cmax was found to be 1900 ng/mL.

Turning to `Cc1ncsc1-c1ccc(CNC(=O)[C@@H]2C[C@@H](O)CN2C(=O)[C@@H](NC(=O)COCCOc2ccc(-c3ccc(C(=O)N[C@H]4C(C)(C)[C@H](Oc5ccc(C#N)c(Cl)c5)C4(C)C)cc3)cc2)C(C)(C)C)cc1` [Example 182, (2S,4R)-1-[(2S)-3,3-dimethyl-2-(2-{2-[4-(4-{[trans-3-(3-chloro-4-cyanophenoxy)-2,2,4,4-tetramethylcyclobutyl]carbamoyl}phenyl)phenoxy]ethoxy}acetamido)butanoyl]-4-hydroxy-N-{[4-(4-methyl-1,3-thiazol-5-yl)phenyl]methyl}pyrrolidine-2-carboxamide], at Androgen Receptor [1] (setting [5]), the Dmax was above 71%. Also, the GI50 with VCaP cells is at most 50 nM. Also, in series [3] (vehicle ELP-1), the AUC(0-t) was 29200 ng·h/mL and the maximum concentration (Cmax) is 1530 ng/mL.

Take `Cc1ncsc1-c1ccc([C@H](C)NC(=O)[C@@H]2C[C@@H](OC(=O)[C@@H](N)C(C)C)CN2C(=O)[C@@H](NC(=O)COCCCCCNc2ccc(C(=O)N[C@H]3C(C)(C)[C@H](Oc4ccc(C#N)c(Cl)c4)C3(C)C)cc2)C(C)(C)C)cc1` [Example 463]: in series [4] (setting [7]), the AUC – broadly, concentration integrated over time – stood at 49 ng·h/mL and the Cmax worked out at 12 ng/mL.

In the case of `Cc1ncsc1-c1ccc([C@H](C)NC(=O)[C@@H]2C[C@@H](O)CN2C(=O)[C@@H](NC(=O)COCCCCCNc2ccc(C(=O)N[C@H]3C(C)(C)[C@H](Oc4ccc(C#N)c(C(F)(F)F)n4)C3(C)C)cc2)C(C)(C)C)cc1` [Example 464], at Androgen Receptor [1] (VCaP cells, Table 35), the DC50 is above 501 nM and the Dmax was above 71%. In series [4] (setting [7]), the AUC turned out to be 118 ng·h/mL and the Cmax came out at 48 ng/mL.

`CC(=O)O[C@@H]1C[C@@H](C(=O)N[C@@H](C)c2ccc(-c3scnc3C)cc2)N(C(=O)[C@@H](NC(=O)COCCCCCNc2ccc(C(=O)N[C@H]3C(C)(C)[C@H](Oc4ccc(C#N)c(Cl)c4)C3(C)C)cc2)C(C)(C)C)C1` [Example 469]: on Androgen Receptor [1] (VCaP cells, Table 35), the DC50 was below 50 nM and the Dmax was above 71%. Besides, in series [4] (setting [8]), the area under the curve (AUC) was 353 ng·h/mL and the Cmax is 181 ng/mL.

As to `Cc1ncsc1-c1ccc([C@H](CN(C)C)NC(=O)[C@@H]2C[C@@H](O)CN2C(=O)[C@@H](NC(=O)COCCCCCOc2ccc(C(=O)N[C@H]3C(C)(C)[C@H](Oc4ccc(C#N)c(Cl)c4)C3(C)C)cc2)C(C)(C)C)cc1` [Example 470], on Androgen Receptor [1] (VCaP cells, Table 35), the DC50 was below 50 nM and the Dmax was above 71%. In addition, in series [4] (setting [7]), the AUC amounted to 469 ng·h/mL and the Cmax came out at 346 ng/mL.
